pIC50: −log10 of the molar value. Converted amounts (≈) assume the structure as drawn. The source made the active and inactive calls. The rule behind the calls is not given here.
How the values were obtained:
Acyl-CoA desaturase 1 = target: T1, Acyl-CoA desaturase 1 (Mus musculus, UniProt P13516); assay: Inhibition of Scd1 in mouse liver microsomes assessed as conversion of [14C]stearate to [14C]oleate pretreated for 10 mins measured after 60 mins; parameters: species or system Microsome
T1 sequence (P13516 whole entry): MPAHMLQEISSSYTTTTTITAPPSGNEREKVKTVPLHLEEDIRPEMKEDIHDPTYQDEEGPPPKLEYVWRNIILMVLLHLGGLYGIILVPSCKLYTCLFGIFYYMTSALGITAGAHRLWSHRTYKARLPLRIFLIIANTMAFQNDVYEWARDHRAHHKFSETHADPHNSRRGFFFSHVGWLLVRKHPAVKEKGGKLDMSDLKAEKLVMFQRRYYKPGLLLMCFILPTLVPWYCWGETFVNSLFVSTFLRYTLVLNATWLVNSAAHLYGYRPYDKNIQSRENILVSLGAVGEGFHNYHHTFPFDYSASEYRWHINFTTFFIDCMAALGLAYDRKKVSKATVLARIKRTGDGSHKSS

Stearoyl-CoA desaturase [1] = target: T2, Stearoyl-CoA desaturase (Homo sapiens, UniProt O00767); assay: Inhibition of human Scd1 expressed in HEK293A cells assessed as conversion of [14C]stearate to [14C]oleate pretreated for 30 mins measured after 4 hrs; type: cell-based, HEK293-A
T2 sequence (O00767 whole entry): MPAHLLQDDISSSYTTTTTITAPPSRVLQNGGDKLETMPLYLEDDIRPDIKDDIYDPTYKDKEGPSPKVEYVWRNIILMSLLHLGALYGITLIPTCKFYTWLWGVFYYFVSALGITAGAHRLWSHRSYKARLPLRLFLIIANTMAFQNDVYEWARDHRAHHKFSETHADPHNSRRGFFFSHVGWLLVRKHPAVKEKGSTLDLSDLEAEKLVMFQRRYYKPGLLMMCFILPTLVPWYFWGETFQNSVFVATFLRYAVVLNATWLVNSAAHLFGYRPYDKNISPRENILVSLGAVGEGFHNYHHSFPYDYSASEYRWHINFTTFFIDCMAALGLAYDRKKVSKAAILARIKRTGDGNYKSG

Stearoyl-CoA desaturase [2] = target: T2, Stearoyl-CoA desaturase; assay: Inhibition of Scd1 in human HEK293A cell microsomes assessed as conversion of [14C]stearate to [14C]oleate pretreated for 10 mins measured after 60 mins; parameters: species or system HEK293-A, Microsome
Mus musculus = assay: Inhibition of Scd1 in po dosed db/db mouse assessed as [14C]oleate to [14C]stearate ratio in liver administered 2 hrs before [14C]stearate challenge measured after 1 hr; type: functional; conditions: read-out: ID50 (the source's name)
[3] = target: T3, Stearoyl-CoA desaturase (Homo sapiens) (UniProt O00767); assay: Inhibition of human Scd1 assessed as conversion of [14C]stearate to [14C]oleate at 10 uM pretreated for 30 mins measured after 4 hrs
T3 sequence (whole entry): T2 sequence (O00767 whole entry)

[4] = Half life in C57BL/6 mouse at 20 mg/kg, po; type: ADME, organism-based; parameters: dose 20 mg/kg, route oral; conditions: in vivo
[5] = AUC (0 to 8 hrs) in C57BL/6 mouse at 20 mg/kg, po; type: ADME, organism-based; parameters: time < 8 hr, dose 20 mg/kg, route oral; conditions: plasma
[6] = Oral bioavailability in C57BL/6 mouse at 20 mg/kg; type: ADME, organism-based; conditions: in vivo
[7] = Solubility in aqueous acidic solution at pH 1.2; type: physicochemical
[8] = Solubility in neutral solution at pH 6.8; type: physicochemical
[9] = Metabolic stability in mouse liver S9 fraction assessed as compound remaining after 30 mins; type: ADME, subcellular; conditions: read-out: Stability
[10] = Half life in C57BL/6 mouse at 5 mg/kg, iv; type: ADME, organism-based; parameters: dose 5 mg/kg, route intravenous; conditions: in vivo
[11] = Clearance in C57BL/6 mouse at 5 mg/kg, iv; type: ADME, organism-based; parameters: dose 5 mg/kg, route intravenous; conditions: in vivo
[12] = Volume of distribution in C57BL/6 mouse at 5 mg/kg, iv; type: ADME, organism-based; parameters: dose 5 mg/kg, route intravenous; conditions: in vivo
[13] = Cmax in C57BL/6 mouse at 20 mg/kg, po; type: ADME, organism-based; parameters: dose 20 mg/kg, route oral; conditions: in vivo
Rattus norvegicus [14] = assay: Reduction of plasma triglyceride level in Zucker fatty rat at 30 mg/kg, po qd for 7 days; type: functional; parameters: scale not given: the % may be the effect or the level left
Rattus norvegicus [15] = assay: Reduction of plasma triglyceride level in po dosed Zucker fatty rat administered qd for 7 days; type: functional, organism-based
Rattus norvegicus [16] = assay: Toxicity in Zucker fatty rat assessed as reduction of body weight at 30 mg/kg, po qd for 7 days; type: organism-based; parameters: dose 30 mg/kg, route oral; scale not given: the % may be the effect or the level left; conditions: in vivo, 168 h
Rattus norvegicus [17] = assay: Reduction of plasma glucose level in Zucker fatty rat at 30 mg/kg, po qd for 7 days; type: functional, organism-based; parameters: dose 30 mg/kg
Rattus norvegicus [18] = assay: Reduction of plasma insulin level in Zucker fatty rat at 30 mg/kg, po qd for 7 days; type: functional, organism-based; parameters: dose 30 mg/kg
Rattus norvegicus [19] = assay: Toxicity in Zucker fatty rat assessed as induction of cutaneous abnormalities at 30 mg/kg, po qd for 7 days; type: organism-based; parameters: dose 30 mg/kg, route oral; conditions: in vivo, 168 h
Rattus norvegicus [20] = assay: Toxicity in Zucker fatty rat assessed as induction of narrow eye fissure at 30 mg/kg, po qd for 7 days; type: organism-based; parameters: dose 30 mg/kg, route oral; conditions: in vivo, 168 h

Row | pIC50 (Acyl-CoA desaturase 1) | pIC50 (Stearoyl-CoA desaturase [1]) | pIC50 (Stearoyl-CoA desaturase [2]) | inhibition [3] | SMILES | ED50 (Mus musculus) | other results
1 | 7.02 | 6.41 | 6.74 | – | Cc1ccccc1C(=O)C1CCN(c2ccc(C(=O)NCC(O)c3ccccn3)nn2)CC1 (stereo unspecified) | – | –
2 | 8.15 | 7.60 | 7.36 | – | Cc1ccccc1C(=O)C1CCN(c2ccc(C(=O)NCC(O)c3cccs3)nn2)CC1 (stereo unspecified) | 14 mg/kg | –
3 | 8.15 | 7.66 | 8.30 | – | Cc1ccccc1C(=O)C1CCN(c2ccc(C(=O)NCC(O)c3ccc(F)cc3)nn2)CC1 (stereo unspecified) | 14 mg/kg | –
4 | 7.28 | 5.98 | 6.51 | < 5% | COc1ccccc1C(=O)C1CCN(c2ccc(C(=O)NCC(O)c3ccccc3)nn2)CC1 (stereo unspecified) | – | –
5 | 6.82 | – | 6.09 | – | O=C(NCCc1ccccc1)c1ccc(N2CCN(C(=O)c3ccccc3C(F)(F)F)CC2)cc1 | – | –
6 | 8.52 | 7.68 | 8.15 | – | Cc1ccccc1C(=O)C1CCN(c2ccc(C(=O)NCC(O)c3ccsc3)nn2)CC1 (stereo unspecified) | 16 mg/kg | –
7 | 6.43 | – | 6.60 | – | O=C(NCCc1ccccc1)c1ccc(N2CCN(C(=O)c3ccccc3C(F)(F)F)CC2)cn1 | – | –
8 | – | – | – | < 5% | Cc1ccccc1C(=O)C1CCN(c2ccc(C(=O)NCC(O)c3ccccc3)nn2)CC1 (stereo unspecified) | 12 mg/kg | half-life [4]: 48 min; AUC(0-t) at 8 h [5]: 500 ng·h/mL; bioavailability [6]: 6%; solubility [7]: 88 µM (≈ 39.1 µg/mL); solubility [8]: 3 µM (≈ 1.33 µg/mL); remaining at 0.5 h [9]: 58%; half-life [10]: 36 min; clearance [11]: 42 mL/min/kg; Vd [12]: 0.9 L/kg; Cmax [13]: 300 ng/mL
9 | 7.13 | 7.10 | 6.93 | 12% | O=C(NCC(O)c1ccccc1)c1ccc(N2CCC(C(=O)c3ccc(F)cc3)CC2)nn1 (stereo unspecified) | – | –
10 | 8.30 | 7.96 | 8.22 | – | Cc1ccccc1C(=O)C1CCN(c2ccc(C(=O)NCC(O)c3cccc(F)c3)nn2)CC1 (stereo unspecified) | 14 mg/kg | –
11 | 8.05 | 7.22 | 7.66 | – | Cc1ccccc1C(=O)C1CCN(c2ccc(C(=O)NCC(O)c3ccccc3F)nn2)CC1 (stereo unspecified) | 17 mg/kg | –
12 | 6.71 | – | 7.00 | – | O=C(NCCc1ccccc1)c1ccc(N2CCN(C(=O)c3ccccc3C(F)(F)F)CC2)nc1 | – | –
13 | 7.43 | 7.37 | 7.55 | – | Cc1ccccc1C(=O)C1CCN(c2ccc(C(=O)NCC(O)c3cccnc3)nn2)CC1 (stereo unspecified) | 3 mg/kg | half-life [4]: 54 min; AUC(0-t) at 8 h [5]: 7800 ng·h/mL; bioavailability [6]: 68%; Activity (Rattus norvegicus [14]): 56%; Activity (Rattus norvegicus [15]): Dose-dependent effect; Activity (Rattus norvegicus [16]): 15%; Activity (Rattus norvegicus [17]): inactive; Activity (Rattus norvegicus [18]): inactive; Activity (Rattus norvegicus [19]): Non-toxic; Activity (Rattus norvegicus [20]): Non-toxic; solubility [7]: > 100 µM; solubility [8]: 29 µM (≈ 12.9 µg/mL); remaining at 0.5 h [9]: 1.1%; half-life [10]: 78 min; clearance [11]: 29 mL/min/kg; Vd [12]: 2.4 L/kg; Cmax [13]: 6300 ng/mL
14 | 8.30 | 6.99 | 8.00 | < 5% | O=C(NCC(O)c1ccccc1)c1ccc(N2CCC(C(=O)c3ccccc3OC(F)(F)F)CC2)nn1 (stereo unspecified) | – | solubility [7]: 83 µM (≈ 42.7 µg/mL); solubility [8]: < 0.5 µM; remaining at 0.5 h [9]: 22%
15 | 8.70 | 7.85 | 8.15 | 9% | O=C(NCC(O)c1ccccc1)c1ccc(N2CCC(C(=O)c3ccccc3C(F)(F)F)CC2)nn1 (stereo unspecified) | – | solubility [7]: 84 µM (≈ 41.9 µg/mL); solubility [8]: < 0.5 µM; remaining at 0.5 h [9]: 47%
16 | 6.82 | 6.97 | 6.53 | < 5% | O=C(NCC(O)c1ccccc1)c1ccc(N2CCC(C(=O)c3ccccc3)CC2)nn1 (stereo unspecified) | – | –
17 | 7.47 | 6.84 | 6.73 | – | Cc1ccccc1C(=O)C1CCN(c2ccc(C(=O)NCC(O)c3ccncc3)nn2)CC1 (stereo unspecified) | – | –

Reference: ChEMBL document CHEMBL1153136, “Novel benzoylpiperidine-based stearoyl-CoA desaturase-1 inhibitors: Identification of 6-[4-(2-methylbenzoyl)piperidin-1-yl]pyridazine-3-carboxylic acid (2-hydroxy-2-pyridin-3-ylethyl)amide and its plasma triglyceride-lowering effects in Zucker fatty rats” (Bioorg Med Chem Lett, 2010)
